Measurements reported in patent US8012971B2, “Therapeutic agent for chronic obstructive pulmonary disease” (Dainippon Sumitomo Pharma Co., Ltd., priority 2005, dated 2011).

Tests used:
Format in all cases: in vivo
[1] = test system: Guinea Pig Chronic Obstructive Pulmonary Disease (COPD) Model; assay: Airway resistance (sRaw) in guinea pig COPD model (cigarette smoke exposure); details: 10 mg/kg/day oral; 1 week of cigarette smoke exposure; mean ± SEM of 8 animals
Protocol: (§1) An evaluation was carried out as follows according to a report of Kosuke MORIZUMI, Junichi FUCHIGAMI et al., 2002, The 75th Annual Meeting of the Japanese Pharmacological Society (2002) Abstract No. P-259, “Study of a chronic obstructive pulmonary disease-Effects of theophylline on respiratory function and lung function of guinea pigs in an exposure of cigarette smoke.”
(§2) Male Hartley strain guinea pigs (purchased from Japan SLC, Inc.) were taken in a cigarette exposure holder (RMH-TUBES, manufactured by Muenster Ltd.) to secure them to an exposure chamber (Flow-past type nose-only inhalation chamber, manufactured by Muenster Ltd.), and allowed to inhale cigarette smoke (Hi-Lite, manufactured by Japan Tobacco Inc.) for 60 minutes per day for 5 days in a week, totally 4 weeks using a smoking exposure equipment (Hamburg II, manufactured by Borgwaldt Technik), while the exposure was carried out for 4 days in the 4th week. • (2) Drug Administrations
(§3) Each 0.5% MC suspension of a test drug was orally administered daily in 5 ml/weight (kg) once a day for 25 days from the first day of the exposure. To a sham-exposure group and a control group was orally administered a 0.5% MC suspension in a similar manner. Any oral administrations were carried out 0.5 to 1 hours before exposures on a cigarette-smoke-exposure day or after measurements when measuring respiratory functions. A drug was not administered on the day for measurement of respiratory functions after finishing the 4th week of the exposure. • (3) Measurements of Airway Resistance
Specific airway resistances (sRaw) in guinea pigs were measured during awakening by double-flow plethysmography using general respiratory function analysis system (PULMOS-I, manufactured by M•I•P•S Corp.). Measurements were carried out before the exposure and on the day after finishing the 1st, 2nd, 3rd and 4th weeks of the exposure. Each 100 breathings of respiratory functions were individually measured, and the average values were obtained as measured values. A rate of change of airway resistances was calculated by the following equation. Rate of change of each measured week (%)=100×(a measured value on each measured date−a measured value before starting exposures of cigarette smoke)/a measured value before starting exposures of cigarette smoke

[2] = test system: Guinea Pig Chronic Obstructive Pulmonary Disease (COPD) Model; assay: Lung functions (FRC, RV) in guinea pig COPD model; details: 10 mg/kg/day oral; after 4th week of exposure; mean ± SEM of 8 animals
Protocol: as §1, §2, §3
After measuring airway resistances in the 4th week, animals were cut open their tracheas under urethane-anesthetizing ([…], i.p.), cannulated on the side of lung, fixed by ligation, and measured residual volumes (RV) and functional residual capacities (FRC) by lung functions measuring system (Biosystem for maneuver, manufactured by Buxco Electronics).

[3] = test system: Guinea Pig Chronic Obstructive Pulmonary Disease (COPD) Model; assay: Inflammatory cells in bronchoalveolar fluid in guinea pig COPD model; details: 10 mg/kg/day oral; mean ± SEM of 8 animals
Protocol: as §1, §2, §3
After measuring lung functions, animals were exsanguinated to death and opened the thorax, ligated the left bronchial bifurcation, and then injected saline (2.5 mL) into the right lung and aspirated the same via fixed cannula on measuring lung functions repeatedly in twice (totally 5 mL), and the recovery solution was obtained as a bronchoalveolar lavage fluid (BALF). BALF was centrifuged (230×g, 4° C., for 10 minutes) to give cell pellets. The pellets were suspended in saline (0.5 mL), and to a part of the suspension was added Turk solution (manufactured by Wako Pure Chemical Industries, Ltd.) so as to dilute 10 to 20 folds. Leukocyte numbers per 0.1 μL were measured by a blood cell counting chamber and leukocyte numbers per 1 μL were calculated. Cell suspensions were prepared again, smears were prepared using about 2000 to 3000 total cell numbers, May-Grunwald-Giemsa stain was carried out, leukocyte numbers were counted under the microscope, a ratio of each leukocyte number to total leukocyte number was obtained, and each cell number per 1 μL was calculated based on the ratio. Results are shown in each cell number per 1 μL.

[4] = test system: Guinea Pig Chronic Obstructive Pulmonary Disease (COPD) Model; assay: Histological investigations of lung in guinea pig COPD model; details: 10 mg/kg/day for 25 days; 8 animals
Protocol: as §1, §2, §3
After collection of BALF, trachea and lung were isolated. The ligation site of the left lung was opened, injected neutral formalin buffer into trachea, bronchi and lung at the pressure of 20 cm H2O via cannula fixed on the side of the lung, and the lung tissue was extended to be fixed. According to a conventional method, tissue section samples were produced using posterior lobe of the left lung and hematoxylin-eosin (HE) stain was carried out. Any other lung tissues were stored in neutral formalin buffers. Drug efficacies of the produced tissue samples were evaluated by scoring tissue changes under the microscope. The criteria of scores were shown as follows: −: none, ±: minimal, +: mild, ++: moderate, +++: severe. Each quantification was calculated as 0, 1, 2, 3, 4.

For `Cn1c(=O)c2[nH]cnc2n(C)c1=O` [theophylline, Theophylline, reference compound], the “Specific airway resistance (sRaw) % increase from pre value” [1] was 15.02 ± 6.73%, the “Functional residual capacity (FRC)” value [2] was 6.916 ± 0.234 mL and the “Residual volume (RV)” value [2] was 1.962 ± 0.417 mL. The “Cell number in BALF, Macrophage” value [3] was 2068 ± 362 cells/μL, the “Cell number in BALF, Neutrophil” value [3] was 1072 ± 322 ^NS cells/μL and the “Cell number in BALF, Total” value [3] was 3578 ± 583 cells/μL. For the same molecule, the “Number of animals with grade + (mild): A. Hyperplasia, epithelial cell, bronchus” value [4] was 0, the “Number of animals with grade + (mild): B. Cellular exudation, neutrophil/eosinophil, lumen, bronchiole” value [4] was 0 and the “Number of animals with grade + (mild): C. Thickening, alveolar wall” value [4] was 1. The “Number of animals with grade + (mild): D. Accumulation, foamy/macrophage-like cell, alveolus” value [4] was 1, the “Number of animals with grade + (mild): E. Cellular infiltration, neutrophil, alveolus” value [4] was 0 and the “Number of animals with grade ++ (moderate): A. Hyperplasia, epithelial cell, bronchus” value [4] was 0. The “Number of animals with grade ++ (moderate): B. Cellular exudation, neutrophil/eosinophil, lumen, bronchiole” value [4] was 0, the “Number of animals with grade ++ (moderate): C. Thickening, alveolar wall” value [4] was 0 and the “Number of animals with grade ++ (moderate): D. Accumulation, foamy/macrophage-like cell, alveolus” value [4] was 0. For the same molecule, the “Number of animals with grade ++ (moderate): E. Cellular infiltration, neutrophil, alveolus” value [4] was 0, the “Number of animals with grade +++ (severe): A. Hyperplasia, epithelial cell, bronchus” value [4] was 0 and the “Number of animals with grade +++ (severe): B. Cellular exudation, neutrophil/eosinophil, lumen, bronchiole” value [4] was 0. For the same molecule, the “Number of animals with grade +++ (severe): C. Thickening, alveolar wall” value [4] was 0, the “Number of animals with grade +++ (severe): D. Accumulation, foamy/macrophage-like cell, alveolus” value [4] was 0 and the “Number of animals with grade +++ (severe): E. Cellular infiltration, neutrophil, alveolus” value [4] was 0. For the same molecule, the “Number of animals with grade ± (minimal): A. Hyperplasia, epithelial cell, bronchus” value [4] was 1, the “Number of animals with grade ± (minimal): B. Cellular exudation, neutrophil/eosinophil, lumen, bronchiole” value [4] was 0 and the “Number of animals with grade ± (minimal): C. Thickening, alveolar wall” value [4] was 0. For the same molecule, the “Number of animals with grade ± (minimal): D. Accumulation, foamy/macrophage-like cell, alveolus” value [4] was 1, the “Number of animals with grade ± (minimal): E. Cellular infiltration, neutrophil, alveolus” value [4] was 1 and the “Number of animals with grade − (none): A. Hyperplasia, epithelial cell, bronchus” value [4] was 7. The “Number of animals with grade − (none): B. Cellular exudation, neutrophil/eosinophil, lumen, bronchiole” value [4] was 8, the “Number of animals with grade − (none): C. Thickening, alveolar wall” value [4] was 7 and the “Number of animals with grade − (none): D. Accumulation, foamy/macrophage-like cell, alveolus” value [4] was 6. The “Number of animals with grade − (none): E. Cellular infiltration, neutrophil, alveolus” value [4] was 7.
